Assay results reported in patent US6750008B1, “Methods and compositions for inhibition of membrane fusion-associated events, including HIV transmission” (priority 1999, dated 2004).

Legend:
HIV-1LAI virus [1] = experiment: Cell fusion assay (HIV-1 induced syncytia formation); format: cell-based
Text: The results of several such experiments are presented herein.

HIV-2 = experiment: Fusion inhibition assay, HIV-2 mediated syncytia formation; format: cell-based; conditions: FIG. 5
Method: Approximately 7×10^4 Molt cells were incubated with 1×10^4 CEM cells chronically infected with the HIV-1LAI virus in 96-well plates (one-half area cluster plates; Costar, Cambridge, Mass.) in a final volume of 100 μl culture medium as previously described (Matthews, T. J. et al., 1987, Proc. Natl. Acad. Sci. USA 84: 5424-5428). Peptide inhibitors were added in a volume of 10 μl and the cell mixtures were incubated for 24 hr. at 37° C. At that time, multinucleated giant cells were estimated by microscopic examination at a 40× magnification which allowed visualization of the entire well in a single field.

HIV-1LAI virus [2] = tested on: HIV-1LAI virus
Method: (§1) Synthetic peptides were incubated at 37° C. with either 247 TCID50 (for experiment depicted in FIG. 2), or 62 TCID50 (for experiment depicted in FIG. 3) units of HIV-1LAI virus or 25 TCID50 units of HIV-2NIHZ and CEM CD4^+ cells at peptide concentrations of 0, 0.04, 0.4, 4.0, and 40 μg/ml for 7 days. The resulting reverse transcriptase (RT) activity in counts per minute was determined using the assay described, below, in Section 6.1.5. See Reed, L. J. et al., 1938, Am. J. Hyg. 27: 493-497 for an explanation of TCID50 calculations.
(§2) The micro-reverse transcriptase (RT) assay was adapted from Goff et al. (Goff, S. et al., 1981, J. Virol. 38:239-248) and Willey et al. (Willey, R. et al., 1988, J. Virol. 62:139-147). Supernatants from virus/cell cultures are adjusted to 1% Triton-X100. A 10 μl sample of supernatant was added to 50 μl of RT cocktail in a 96-well U-bottom microtitre plate and the samples incubated at 37° C. for 90 min. The RT cocktail contained 75 mM KCl, 2 mM dithiothreitol, 5 mM MgCl2, 5 μg/ml poly A (Pharmacia, cat. No. 27-4110-01), 0.25 units/ml oligo dT (Pharmacia, cat. No. 27-7858-01), 0.05% NP40, 50 mM Tris-HCl, pH 7.8, 0.5 μM non-radioactive dTTP, and 10 μCi/ml ^32P-dTTP (Amersham, cat. No. PB.10167).
After the incubation period, 40 μl of reaction mixture was applied to a Schleicher and Schuell (S+S) NA45 membrane (or DE81 paper) saturated in 2×SSC buffer (0.3M NaCl and 0.003M sodium citrate) held in a S+S Minifold over one sheet of GB003 (S+S) filter paper, with partial vacuum applied. Each well of the minifold was washed four times with 200 μl 2×SSC, under full vacuum. The membrane was removed from the minifold and washed 2 more times in a pyrex dish with an excess of 2×SSC. Finally, the membrane was drained on absorbent paper, placed on Whatman #3 paper, covered with Saran wrap, and exposed to film overnight at −70° C.
DP178 (SEQ ID:1) was next tested for its ability to block CD-4^+ CEM cell infection by cell free HIV-1 virus. […]

HIV-2NIHZ = experiment: Cell free virus infection assay (RT production); format: cell-based; conditions: 25 TCID50 HIV-2NIHZ, CEM cells, 7 days
Method: as §1
as §2, with “PB.10167). […]” for “PB.10167).”

[3] = tested on: HIV-1IIIB chronically infected CEM cells; format: cell-based; conditions: 10 nM
Method: Cell fusion assays were performed as previously described (Matthews et al., 1987, Proc. Natl. Acad. Sci. USA 84: […]). CEM cells (7×10^4) were incubated with HIV-1IIIB chronically infected CEM cells (10^4) in 96-well flat-bottomed half-area plates (Costar) in 100 μl culture medium. Peptide and fusion proteins at various concentrations in 10 μl culture medium were incubated with the cell mixtures at 37° C. for 24 hours. Multinucleated syncytia were estimated with microscopic examination.
No peptide or fusion protein was added in the control samples.

HIV-1IIIB = format: cell-based
Fab-d = experiment: ELISA analysis of DP178 binding to the leucine zipper motif of gp41 (Fab-d ELISA); parameters: species or system human; conditions: reagent alone
Method: The amino acid sequence of DP178 used is: […]. […] Each well was washed three times with distilled water then blocked with 3% bovine serum albumin (BSA) for 2 hours. After blocking, peptides with 0.5% BSA in TBST (40 mM Tris-HCl pH7.5, 150 mM NaCl, 0.05% Tween 20) were added to the ELISA plates and incubated at room temperature for 1 hour. After washing three times with TBST, Fab-d was added at a concentration of 10 ng/ml with 0.5% BSA in TBST. The plates were washed three times with TBST after incubation at room temperature for 1 hour. Horse radish peroxidase (HRP) conjugated goat antihuman Fab antiserum at a 2000 fold dilution in TBST with 0.5% BSA was added to each well and incubated at room temperature for 45 minutes. The plates were then washed four times with TBST. The peroxidase substrate o-phenylene diamine (2.5 mg/ml) and 0.15% H2O2 were added to develop the color. The reaction was stopped with an equal volume of 4.5 N H2SO4 after incubation at room temperature for 10 minutes. The optical density of the stopped reaction mixture was measured with a micro plate reader (Molecular Design) at 490 nm.

HIV-1/IIIb = experiment: Anti-HIV assays of DP107/DP178 truncations and mutations; format: cell-based; conditions: worded 'results shown are for 4 ng/ml'
Text: Anti-HIV assays: The antiviral assays performed were as those described, above, in Section 6.1. Assays utilized HIV-1/IIIb and/or HIV-2 NIHZ isolates. Purified peptides were used, unless otherwise noted in FIGS. 49A-C.

Substance: Enfuvirtide
- selectivity as inhibitor of HIV-1-mediated over HIV-2 mediated cell fusion (HIV-1LAI virus [1]): 4 log
- peptide concentration blocking HIV-1-mediated syncytia formation (HIV-1LAI virus [1]; FIG. 5, HIV-1 vs HIV-2): below 1 ng/ml
- complete protection against syncytium formation down to lowest concentration tested (HIV-1LAI virus [1]; HIV-1LAI): ≤ 12.5 ng/mL
- lowest effective inhibitory concentration, complete block of virus induced syncytia formation (HIV-1LAI virus [1]; Molt cells + chronically HIV-1 infected CEM cells, 24 hr): 1 to 10 ng/mL
- complete protection against syncytium formation down to lowest concentration used (HIV-1LAI virus [1]; all other HIV-1 viruses (HIV-1MN, HIV-1RF, HIV-1SF2)): ≤ 100 ng/mL
- concentration failing to block HIV-2 mediated syncytia formation (HIV-2): > 10 µg/mL
- IC50, inhibition of RT production (HIV-1LAI virus [2]; 62 TCID50 HIV-1LAI, CEM cells, 7 days): about 31 ng/ml
- potency as HIV-1 inhibitor relative to HIV-2 inhibitor (HIV-1LAI virus [2]; cell free virus infection): two logs more potent
- IC50 for HIV-2NIHZ (HIV-2NIHZ): much higher
- syncytia in HIV-1 induced cell-cell fusion [3]: not observable syncytia
- IC90 (HIV-1IIIB): 80 nM
- binding of Fab-d (Fab-d): failed to bind
- anti-HIV antiviral data, results shown (FIGS. 49A-C) (HIV-1/IIIb): 4 ng/mL
